Source: patent US20240018121A1, “NOVEL HETEROAROMATIC COMPOUNDS EXHIBITING ANTIFUNGAL ACTIVITY AND THEIR METHOD OF USE” (FOX CHASE CHEMCIAL DIVERSITY CENTER, INC., priority 2020, published 2024)
Values after ≈ are worked out from the molar mass of the structure shown. Counter-ions that a name gives are not always drawn. Like-named read-outs stand apart in the source and are kept apart here.

What was measured:
Type in all cases: cell-based
[1] = system: Mucor circinelloides 1463(62) (ATCC 26759); experiment: Fungal MIC Protocol, Mucor circinelloides (MIC-50); conditions: for MIC50: Mucor circinelloides, read-out: MIC-50 Mucorales circinelloides 26579
Method in brief: (§1)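 Harvested spores, adjusted by OD530 to about 2×10^4 cfu/mL in RPMI/MOPS pH 7.0, are mixed with ten duplicate serial dilutions of compound. Incubation runs 48 h at 35° C before visual scoring of the lowest concentration inhibiting growth >50%.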

[2] = system: Mucor ramosissimus 057718 (ATCC 90286); experiment: Fungal MIC Protocol, Mucor ramosissimus (MIC-50); conditions: for MIC50: Mucor ramosissimus, read-out: MIC-50 Mucorales ramosissimus 90286
Method in brief: as §1

[3] = system: Fusarium solani (ATCC 58877); experiment: Fungal MIC Protocol, Fusarium solani; conditions: for MIC: Fusarium solani, read-out: MIC Fusarium solani 58877
Method in brief: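 Broth microdilution MIC test against Fusarium solani in RPMI/MOPS medium at pH 7.0. Compounds from DMSO stock were diluted to 200 ug/mL, then serially diluted ten times and plated in duplicate at 50 μl per well. 50 ul of spore suspension at OD530 0.005 was added. Controls had compound without cells and spores without compound. Plates were mixed gently, bagged, and incubated at 35° C. for 48 hours.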

[4] = system: Aspergillus flavus AFL1 (ATCC MYA-3631); experiment: Fungal MIC Protocol, Aspergillus flavus; conditions: for MIC: Aspergillus flavus, read-out: MIC Aspergillus flavus 3631
Method in brief: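 The MIC against Aspergillus flavus was measured by broth microdilution in RPMI/MOPS medium at pH 7.0. Compounds were diluted to 200 ug/mL from DMSO stocks, then ten serial dilutions were tested in duplicate in round bottom 96-well plates. Spores adjusted to a final OD530 of 0.002 were added, with no-cell and no-compound control wells, and plates were incubated 48 hours at 35° C.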

Candida albicans GDH2346 = experiment: Candida Minimal Inhibitory Concentration (MIC); conditions: for MIC50: Candida albicans, read-out: MIC-50 Candida albicans GDH2346
Method in brief: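 Twofold serial dilutions from 200 μg/mL in RPMI 1640/MOPS with glucose, pH 7.0, tested in duplicate against yeast from an OD600 1.0 suspension diluted 1:1000. Incubated at 35° C; OD600 read at 24 and 48 h.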

[5] = system: Fusarium falciforme FS1 (ATCC MYA-3636); experiment: Fungal MIC Protocol, Fusarium falciforme; conditions: for MIC: Fusarium falciforme, read-out: MIC Fusarium falciforme 3636
Method in brief: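 MIC against Fusarium falciforme was determined by broth microdilution in RPMI/MOPS medium containing glucose. Compounds started at 200 ug/mL and were serially diluted ten times, then combined with harvested spores adjusted to an OD530 of 0.005. Controls held compound without cells and spores without compound. Plates were bagged and incubated at 35° C. for 48 hours.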

[6] = system: Aspergillus fumigatus T33439 (ATCC MYA-3626); experiment: Fungal MIC Protocol, Aspergillus fumigatus; conditions: for MIC: Aspergillus fumigatus, read-out: MIC Aspergillus fumigatus 3626
Method in brief: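 This broth microdilution MIC test used RPMI/MOPS medium at pH 7.0 with glucose. Compounds were diluted from DMSO stock to 200 ug/mL and serially diluted ten times in 96-well round bottom plates. Equal volumes of compound and Aspergillus spore suspension at OD530 0.002 were combined, with controls of compound without cells and spores without compound. Plates were bagged and incubated at 35° C. for 48 hours.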

[7] = ATCC26759, 50% growth inhibition at 48 hours
[8] = ATCC90286, 50% growth inhibition at 48 hours
[9] = ATCC58877, 100% growth inhibition at 48 hours
[10] = 100% growth inhibition at 48 hours
[11] = GDH2346, 50% growth inhibition at 48 hours
[12] = 50% growth inhibition at 48 hours

| Compound | MIC50 [1, 7] [µg/mL] | MIC50 [2, 8] [µg/mL] | MIC [3, 9] [µg/mL] | MIC [4, 10] [µg/mL] | MIC50 (Candida albicans GDH2346; [11]) [µg/mL] | MIC [5, 10] [µg/mL] | MIC [6, 10] [µg/mL] | other results |
| --- | --- | --- | --- | --- | --- | --- | --- | --- |
| Cn1c(-c2ccc(C3=CCN(C(=N)N)CC3)cc2)nnc1-c1ccc(C2=CCN(C(=N)N)CC2)cc1F [Example 78, 4-(4-{5-[4-(1-carbamimidoyl-1,2,3,6-tetrahydropyridin-4-yl)-2-fluorophenyl]-4-methyl-4H-1,2,4-triazol-3-yl}phenyl)-1,2,3,6-tetrahydropyridine-1-carboximidamide trifluoroacetate] | – | – | – | – | – | – | – | MIC50 ([1]; ATCC26759, 48 h): 0.2 µg/mL; MIC50 ([2]; ATCC90286, 48 h): 0.78 µg/mL; MIC ([3]; ATCC58877, 48 h): 0.1 µg/mL; MIC ([4]; 48 h): 0.1 µg/mL; MIC50 (Candida albicans GDH2346; GDH2346, 48 h): 0.2 µg/mL; MIC ([5]; 48 h): 0.05 µg/mL; MIC ([6]; 48 h): 0.05 µg/mL |
| Cn1c(-c2ccc(C3=CCN(C(=N)N)C3)cc2)nnc1-c1ccc(C2=CCN(C(=N)N)C2)cc1 [Example 29] | 6.25 (≈ 13.8 µM) | 6.25 (≈ 13.8 µM) | 0.39 (≈ 0.86 µM) | 0.39 (≈ 0.86 µM) | 1.56 (≈ 3.44 µM) | < 0.1 | < 0.1 | – |
| N=C(N)NCCn1c(-c2ccc(C3=CCN(C(=N)N)CC3)cc2F)nnc1-c1ccc(C2=CCN(C(=N)N)CC2)cc1F [Example 16, 4,4′-(4,4′-(4-(2-guanidinoethyl)-4H-1,2,4-triazole-3,5-diyl)bis(3-fluoro-4,1-phenylene))bis(5,6-dihydropyridine-1(2H)-carboximidamide)] | 12.5 (≈ 21.2 µM) | > 100 | < 0.1 | 0.39 (≈ 0.663 µM) | 0.39 (≈ 0.663 µM) | < 0.1 | 0.39 (≈ 0.663 µM) | – |
| Cc1cc(C2=CCN(C(=N)N)CC2)ccc1-c1nnc(-c2ccc(C3=CCN(C(=N)N)CC3)cc2)o1 [Example 43, 4-(4-(5-(4-(1-Carbamimidoyl-1,2,3,6-tetrahydropyridin-4-yl)-2-methylphenyl)-1,3,4-oxadiazol-2-yl)phenyl)-5,6-dihydropyridine-1(2H)-carboximidamide] | 12.5 (≈ 25.9 µM) | 25 (≈ 51.8 µM) | 0.78 (≈ 1.62 µM) | 0.31 (≈ 0.642 µM) | 0.39 (≈ 0.808 µM) | 0.2 (≈ 0.414 µM) | 0.78 (≈ 1.62 µM) | – |
| Cn1c(-c2ccc(C3CCN(C(=N)N)CC3)cc2)nnc1-c1ccc(C2CCN(C(=N)N)CC2)cc1 [Example 39, 4,4′-(4,4′-(4-Methyl-4H-1,2,4-triazole-3,5-diyl)bis(4,1-phenylene))dipiperidine-1-carboximidamide] | > 100 | > 100 | 0.78 (≈ 1.61 µM) | 1.56 (≈ 3.21 µM) | 0.78 (≈ 1.61 µM) | 0.78 (≈ 1.61 µM) | 1.56 (≈ 3.21 µM) | – |
| Cn1c(-c2ccc(C3=CCN(C(=N)N)CC3)cc2)nnc1-c1ccc(C2=CCN(C(=N)N)CC2)c(C(F)(F)F)c1 [Example 25, 4-(4-(5-(4-(1-Carbamimidoyl-1,2,3,6-tetrahydropyridin-4-yl)-3-(trifluoromethyl)phenyl)-4-methyl-4H-1,2,4-triazol-3-yl)phenyl)-5,6-dihydropyridine-1(2H)-carboximidamide] | 0.78 (≈ 1.42 µM) | 3.13 (≈ 5.69 µM) | 0.2 (≈ 0.364 µM) | 0.39 (≈ 0.71 µM) | 0.78 (≈ 1.42 µM) | 0.2 (≈ 0.364 µM) | 0.2 (≈ 0.364 µM) | – |
| N=C(N)N1CC=C(c2ccc(-c3nnc(-c4ccc(C5=CCN(C(=N)N)CC5)cc4F)n3C3CCN(C(=N)N)CC3)c(F)c2)CC1 [Example 12, 4,4′-(4,4′-(4-(1-Carbamimidoylpiperidin-4-yl)-4H-1,2,4-triazole-3,5-diyl)bis (3-fluoro-4,1-phenylene))bis(5,6-dihydropyridine-1(2H)-carboximidamide)] | > 100 | > 100 | < 0.1 | 3.13 (≈ 4.98 µM) | 12.5 (≈ 19.9 µM) | 0.39 (≈ 0.62 µM) | 3.13 (≈ 4.98 µM) | – |
| Cn1c(-c2ccc(C3=CCC(C(=N)N)CC3)cc2F)nnc1-c1ccc(C2=CCC(C(=N)N)CC2)cc1F (centres unmarked) [Example 87, 4-(4-{5-[4-(4-carbamimidoylcyclohex-1-en-1-yl)-2-fluorophenyl]-4-methyl-4H-1,2,4-triazol-3-yl}-3-fluorophenyl)cyclohex-3-ene-1-carboximidamide trifluoroacetate] | – | – | – | – | – | – | – | MIC50 ([1]; ATCC26759, 48 h): 0.39 µg/mL; MIC50 ([2]; ATCC90286, 48 h): 3.13 µg/mL; MIC ([3]; ATCC58877, 48 h): 0.2 µg/mL; MIC ([4]; 48 h): 0.78 µg/mL; MIC50 (Candida albicans GDH2346; GDH2346, 48 h): 0.2 µg/mL; MIC ([5]; 48 h): 0.1 µg/mL; MIC ([6]; 48 h): 0.2 µg/mL |
| CC(C)n1c(-c2ccc(C3=CCN(C(=N)N)CC3)cc2)nnc1-c1ccc(C2=CCN(C(=N)N)CC2)cc1 [Example 3, 4,4′-(4,4′-(4-isopropyl-4H-1,2,4-triazole-3,5-diyl)bis(4,1-phenylene))bis(5,6-dihydropyridine-1 (2H)-carboximidamide)] | 0.39 (≈ 0.765 µM) | 0.78 (≈ 1.53 µM) | < 0.1 | < 0.1 | 0.1 (≈ 0.196 µM) | < 0.1 | < 0.1 | – |
| Cn1nc(-c2ccc(C3=CCN(C(=N)N)CC3)cc2)nc1-c1ccc(C2=CCN(C(=N)N)CC2)cc1 [Example 38, 4,4′-(4,4′-(1-Methyl-1H-1,2,4-triazole-3,5-diyl)bis(4,1-phenylene)) bis(5,6-dihydropyridine-1(2H)-carboximidamide)] | – | – | – | – | – | – | – | MIC-50 Mucorales circinelloides 26579 [1, 12]: 3.13 µg/mL (≈ 6.5 µM); MIC-50 Mucorales ramosissimus 90286 [2, 12]: 0.78 µg/mL (≈ 1.62 µM); MIC Fusarium solani 58877 [3, 10]: <0.1 µg·mL; MIC Aspergillus flavus 3631 [4, 10]: 0.16 µg·mL; MIC-50 Candida albicans GDH2346 (Candida albicans GDH2346; [12]): 6.25 µg/mL (≈ 13 µM); MIC Fusarium falciforme 3636 [5, 10]: 0.2 µg·mL; MIC Aspergillus fumigatus 3626 [6, 10]: 0.2 µg·mL |
| Cn1c(-c2cc(F)c(C3=CCN(C(=N)N)CC3)c(F)c2)nnc1-c1ccc(C2=CCN(C(=N)N)CC2)cc1F [Example 85, 4-(4-{5-[4-(1-carbamimidoyl-1,2,3,6-tetrahydropyridin-4-yl)-2-fluorophenyl]-4-methyl-4H-1,2,4-triazol-3-yl}-2,6-difluorophenyl)-1,2,3,6-tetrahydropyridine-1-carboximidamide trifluoroacetate] | – | – | – | – | – | – | – | MIC50 ([1]; ATCC26759, 48 h): 0.2 µg/mL; MIC50 ([2]; ATCC90286, 48 h): 0.78 µg/mL; MIC ([3]; ATCC58877, 48 h): < 0.012 µg/mL; MIC ([4]; 48 h): 0.024 µg/mL; MIC50 (Candida albicans GDH2346; GDH2346, 48 h): 0.1 µg/mL; MIC ([5]; 48 h): < 0.012 µg/mL; MIC ([6]; 48 h): 0.024 µg/mL |
